Test results: US20230233569A1 (Revolution Medicines, Inc., priority 2020, published 2023)
Where two headings read alike, the source gives them in different places.

What was measured:
[1] = system: 4EBP1 (Thr37/46) phosphorylation (mTORC1) in MDA-MB-468 cells; experiment: Cell based AlphaLISA assay, mTOR kinase cellular assay: inhibition of p-4E-BP1 (T37/46) in MDA-MB-468 cells
In short: (§1)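 MDA-MB-468 cells treated with compound at 0.017-1,000 nM for two to four hours at 37° C, then lysed. Phospho-AKT1/2/3 S473, 4EBP1 T37/46 and P70S6K T389 quantified by AlphaLISA SureFire Ultra in duplicate; IC50 from normalized regression with control-based normalization.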

[2] = system: P70S6K (Thr389) phosphorylation (mTORC1) in MDA-MB-468 cells; experiment: Cell based AlphaLISA assay, mTOR kinase cellular assay: inhibition of p-P70S6K (T389) in MDA-MB-468 cells
Procedure: Cell Based AlphaLISA Assays for Determining IC50 For Inhibition of P-Akt (S473), P-4E-BP1 (T37/46), and P-P70S6K (T389) in MDA-MB-468 Cells
mTOR Kinase Cellular Assay
To measure functional activity of mTORC1 and mTORC2 in cells the phosphorylation of 4EBP1 (Thr37/46) and P70S6K (Thr389), and AKT1/2/3 (Ser473) was monitored using AlphaLisa SureFire Ultra Kits (Perkin Elmer). MDA-MB-468 cells (ATCC® HTB-132) were cultured in 96-well tissue culture plates and treated with compounds in the disclosure at concentrations varying from 0.017-1,000 nM for two to four hours at 37° C. Incubations were terminated by removal of the assay buffer and addition of lysis buffer provided with the assay kit. Samples were processed according to the manufacturer's instructions. The Alpha signal from the respective phosphoproteins was measured in duplicate using a microplate reader (Envision, Perkin-Elmer or Spectramax M5, Molecular Devices). Inhibitor concentration response curves were analyzed using normalized IC50 regression curve fitting with control based normalization.

[3] = system: AKT1/2/3 (Ser473) phosphorylation (mTORC2) in MDA-MB-468 cells; experiment: Cell based AlphaLISA assay, mTOR kinase cellular assay: inhibition of p-Akt (S473) in MDA-MB-468 cells
In short: as §1

[4] = Homo sapiens, read-out: pIC50 for Inhibition of mTORC1 and mTORC2 Substarte Phosphorylation p-4E-BP1-(T37/46) (converted)
[5] = Homo sapiens, read-out: pIC50 for Inhibition of mTORC1 and mTORC2 Substarte Phosphorylation p-P70S6K-(T389) (converted)
[6] = Homo sapiens, read-out: pIC50 for Inhibition of mTORC1 and mTORC2 Substarte Phosphorylation p-AKT1/2/3-(S473) (converted)

SMILES	IC50 [1, 4] [nM]	IC50 [2, 5] [nM]	IC50 [3, 6] [nM]	IC50 ([1]; two to four hours at 37° C., AlphaLisa SureFire Ultra, read-out: IC50 for Inhibition of mTORC1 and mTORC2 Substarte Phosphorylation, p-4E-BP1-(T37/46)) [nM]	IC50 ([2]; two to four hours at 37° C., AlphaLisa SureFire Ultra, read-out: IC50 for Inhibition of mTORC1 and mTORC2 Substarte Phosphorylation, p-P70S6K-(T389)) [nM]	IC50 ([3]; two to four hours at 37° C., AlphaLisa SureFire Ultra, read-out: IC50 for Inhibition of mTORC1 and mTORC2 Substarte Phosphorylation, p-AKT1/2/3-(S473)) [nM]
CO[C@H]1C[C@@H]2CC[C@@H](C)[C@@](O)(O2)C(=O)C(=O)N2CCCC[C@H]2C(=O)O[C@H]([C@H](C)C[C@@H]2CC[C@@H](OC(=O)NCc3cnc(N4CCN(C(=O)CCOCCN5CCN(c6ncc(C(=O)NCCOCCC(=O)NCCCCn7nc(-c8ccc9oc(N)nc9c8)c8c(N)ncnc87)cn6)CC5)CC4)nc3)[C@H](OC)C2)CC(=O)[C@H](C)/C=C(\C)[C@@H](O)[C@@H](OC)C(=O)[C@H](C)C[C@H](C)/C=C/C=C/C=C/1C [Example 63]	≤ 3.16	≤ 1	≤ 3.16	–	–	–
CO[C@H]1C[C@@H]2CC[C@@H](C)[C@@](O)(O2)C(=O)C(=O)N2CCCC[C@H]2C(=O)O[C@H]([C@H](C)C[C@@H]2CC[C@@H](OC(=O)NCCOCCOCCOCCOCCOCCOCCC(=O)N3CCC(N4CCC(C(=O)N5CCc6cc(Cn7nc(-c8ccc9oc(N)nc9c8)c8c(N)ncnc87)ccc6C5)CC4)CC3)[C@H](OC)C2)CC(=O)[C@H](C)/C=C(\C)[C@@H](O)[C@@H](OC)C(=O)[C@H](C)C[C@H](C)/C=C/C=C/C=C/1C [Example 48]	≤ 3.16	≤ 1	3.16 to 31.6	–	–	–
CO[C@H]1C[C@@H]2CC[C@@H](C)[C@@](O)(O2)C(=O)C(=O)N2CCCC[C@H]2C(=O)O[C@H]([C@H](C)C[C@@H]2CC[C@@H](OC(=O)N3CCc4nc(N5CCN(c6ncc(C(=O)NCCOCCOCCOCCOCCC(=O)NCCCCn7nc(-c8cnc9[nH]ccc9c8)c8c(N)ncnc87)cn6)CC5)ncc4C3)[C@H](OC)C2)CC(=O)[C@H](C)/C=C(\C)[C@@H](O)[C@@H](OC)C(=O)[C@H](C)C[C@H](C)/C=C/C=C/C=C/1C [Example 35]	≤ 3.16	≤ 1	3.16 to 31.6	–	–	–
CO[C@H]1C[C@@H]2CC[C@@H](C)[C@@](O)(O2)C(=O)C(=O)N2CCCC[C@H]2C(=O)O[C@H]([C@H](C)C[C@@H]2CC[C@@H](OC(=O)NCc3cnc(N4CCN(c5ncc(C(=O)NCCOCCOCCOCCOCCC(=O)N6CCc7cc(Cn8nc(-c9ccc%10oc(N)nc%10c9)c9c(N)ncnc98)ccc7C6)cn5)CC4)nc3)[C@H](OC)C2)C[C@@H](OC)[C@H](C)/C=C(\C)[C@@H](O)[C@@H](OC)C(=O)[C@H](C)C[C@H](C)/C=C/C=C/C=C/1C [Example 29]	≤ 3.16	≤ 1	> 1000	–	–	–
CC(C)n1nc(-c2ccc3oc(N)nc3c2)c2c(N)ncnc21 [MLN-128]	–	–	–	16	1.4	3.7
CO[C@H]1C[C@@H]2CC[C@@H](C)[C@@](O)(O2)C(=O)C(=O)N2CCCC[C@H]2C(=O)O[C@H]([C@H](C)C[C@@H]2CC[C@@H](OC(=O)N3CCc4nc(N5CCN(c6ncc(C(=O)NCCOCCOCCOCCOCCC(=O)N7CCc8cc(Cn9nc(-c%10cnc%11[nH]ccc%11c%10)c%10c(N)ncnc%109)ccc8C7)c(N)n6)CC5)ncc4C3)[C@H](OC)C2)CC(=O)[C@H](C)/C=C(\C)[C@@H](O)[C@@H](OC)C(=O)[C@H](C)C[C@H](C)/C=C/C=C/C=C/1C [Example 109]	> 1000	10 to 1000	> 1000	–	–	–
CO[C@H]1C[C@@H]2CC[C@@H](C)[C@@](O)(O2)C(=O)C(=O)N2CCCC[C@H]2C(=O)O[C@H]([C@H](C)C[C@@H]2CC[C@@H](OC(=O)NCc3cnc(N4CCN(c5ncc(C(=O)NCCOCCOCCOCCOCCC(=O)N6CCc7cc(Cn8nc(-c9ccc%10oc(N)nc%10c9)c9c(N)ncnc98)ccc7C6)cn5)CC4)nc3)[C@H](OC)C2)C[C@@H](O)[C@H](C)/C=C(\C)[C@@H](O)[C@@H](OC)C(=O)[C@H](C)C[C@H](C)/C=C/C=C/C=C/1C [Example 28]	≤ 3.16	≤ 1	> 1000	–	–	–
CO[C@H]1C[C@@H]2CC[C@@H](C)[C@@](O)(O2)C(=O)C(=O)N2CCCC[C@H]2C(=O)O[C@H]([C@H](C)C[C@@H]2CC[C@@H](OC(=O)N3CCc4nc(N5CCN(CCOCCOCCOCCOCCOCCC(=O)N6CCc7cc(Cn8nc(-c9cnc%10[nH]ccc%10c9)c9c(N)ncnc98)ccc7C6)CC5)ncc4C3)[C@H](OC)C2)CC(=O)[C@H](C)/C=C(\C)[C@@H](O)[C@@H](OC)C(=O)[C@H](C)C[C@H](C)/C=C/C=C/C=C/1C [Example 38]	> 1000	≤ 1	> 1000	–	–	–
CO[C@H]1C[C@@H]2CC[C@@H](C)[C@@](O)(O2)C(=O)C(=O)N2CCCC[C@H]2C(=O)O[C@H]([C@H](C)C[C@@H]2CC[C@@H](OC(=O)NCCOCCOCCOCCOCCC(=O)NCc3cnc(N4CCN(c5ncc(C(=O)N6CCc7cc(Cn8nc(-c9ccc%10oc(N)nc%10c9)c9c(N)ncnc98)ccc7C6)cn5)CC4)nc3)[C@H](OC)C2)C[C@@H](OC)[C@H](C)/C=C(\C)[C@@H](O)[C@@H](OC)C(=O)[C@H](C)C[C@H](C)/C=C/C=C/C=C/1C [Example 50]	≤ 3.16	≤ 1	31.6 to 1000	–	–	–
CO[C@H]1C[C@@H]2CC[C@@H](C)[C@@](O)(O2)C(=O)C(=O)N2CCCC[C@H]2C(=O)O[C@H]([C@H](C)C[C@@H]2CC[C@@H](OC(=O)NCc3cnc(N4CCN(c5ncc(C(=O)NCCOCCOCCOCCOCCC(=O)N6CCc7cc(Cn8nc(-c9cnc%10[nH]ccc%10c9)c9c(N)ncnc98)ccc7C6)c(N)n5)CC4)nc3)[C@H](OC)C2)CC(=O)[C@H](C)/C=C(\C)[C@@H](O)[C@@H](OC)C(=O)[C@H](C)C[C@H](C)/C=C/C=C/C=C/1C [Example 108]	> 1000	1 to 10	> 1000	–	–	–
CO[C@H]1C[C@@H]2CC[C@@H](C)[C@@](O)(O2)C(=O)C(=O)N2CCCC[C@H]2C(=O)O[C@H]([C@H](C)C[C@@H]2CC[C@@H](OC(=O)NCCOCCC(=O)NCc3cnc(N4CCN(C(=O)CCOCCN5CCN(c6ncc(C(=O)N7CCc8cc(Cn9nc(-c%10ccc%11oc(N)nc%11c%10)c%10c(N)ncnc%109)ccc8C7)cn6)CC5)CC4)nc3)[C@H](OC)C2)C[C@@H](OC)[C@H](C)/C=C(\C)[C@@H](O)[C@@H](OC)C(=O)[C@H](C)C[C@H](C)/C=C/C=C/C=C/1C [Example 70]	≤ 3.16	≤ 1	31.6 to 1000	–	–	–
CO[C@H]1C[C@@H]2CC[C@@H](C)[C@@](O)(O2)C(=O)C(=O)N2CCCC[C@H]2C(=O)O[C@H]([C@H](C)C[C@@H]2CC[C@@H](OC(=O)NCCOCCOCCOCCOCCOCCOCCOCCOCCC(=O)N3CCC(n4nc(-c5ccc6oc(N)nc6c5)c5c(N)ncnc54)CC3)[C@H](OC)C2)CC(=O)[C@H](C)/C=C(\C)[C@@H](O)[C@@H](OC)C(=O)[C@H](C)C[C@H](C)/C=C/C=C/C=C/1C [Example 19]	≤ 3.16	≤ 1	≤ 3.16	–	–	–
CO[C@H]1C[C@@H]2CC[C@@H](C)[C@@](O)(O2)C(=O)C(=O)N2CCCC[C@H]2C(=O)O[C@H]([C@H](C)C[C@@H]2CC[C@@H](OC(=S)NCc3cnc(N4CCN(C(=O)CCOCCN5CCN(c6ncc(C(=O)N7CCc8cc(Cn9nc(-c%10ccc%11oc(N)nc%11c%10)c%10c(N)ncnc%109)ccc8C7)cn6)CC5)CC4)nc3)[C@H](OC)C2)C[C@@H](O)[C@H](C)/C=C(\C)[C@@H](O)[C@@H](OC)C(=O)[C@H](C)C[C@H](C)/C=C/C=C/C=C/1C [Example 117]	≤ 3.16	≤ 1	3.16 to 31.6	–	–	–
CO[C@H]1C[C@@H]2CC[C@@H](C)[C@@](O)(O2)C(=O)C(=O)N2CCCC[C@H]2C(=O)O[C@H]([C@H](C)C[C@@H]2CC[C@@H](OC(=O)NCCOCCOCCOCCOCCC(=O)NCCOCCOCCOCCOCCC(=O)N3CCc4cc(Cn5nc(-c6ccc7oc(N)nc7c6)c6c(N)ncnc65)ccc4C3)[C@H](OC)C2)C[C@@H](O)[C@H](C)/C=C(\C)[C@@H](O)[C@@H](OC)C(=O)[C@H](C)C[C@H](C)/C=C/C=C/C=C/1C [Example 16]	≤ 3.16	≤ 1	≤ 3.16	–	–	–
CO[C@H]1C[C@@H]2CC[C@@H](C)[C@@](O)(O2)C(=O)C(=O)N2CCCC[C@H]2C(=O)O[C@H]([C@H](C)C[C@@H]2CC[C@@H](OC(=O)N(C)Cc3cnc(N4CCN(c5ncc(C(=O)NCCOCCOCCOCCOCCC(=O)N6CCc7cc(Cn8nc(-c9cnc%10[nH]ccc%10c9)c9c(N)ncnc98)ccc7C6)cn5)CC4)nc3)[C@H](OC)C2)CC(=O)[C@H](C)/C=C(\C)[C@@H](O)[C@@H](OC)C(=O)[C@H](C)C[C@H](C)/C=C/C=C/C=C/1C [Example 34]	> 1000	≤ 1	> 1000	–	–	–
